Converted amounts (≈) assume the structure as drawn.
Experiments:
[1] = system: C. krusei ATCC 6258; assay: Antifungal susceptibility, broth dilution MIC (CLSI M27-A2); type: cell-based, Candida krusei; conditions: Pichia kudriavzevii, ATCC6258; C. krusei ATCC 6258; broth dilution, RPMI 1640 with MOPS, 48 hours; read-out: Activity against organisms (MIC50) Ck01
Experimental: (§1) The compounds of Formula 1 were tested for antifungal activity against Candida albicans, C. glabrata, C. krusei, C. tropicalis, Cryptococcus neoformans, Aspergillus fumigatus, A. niger and Fusarium proliferatum. In vitro evaluation of antifungal activity was performed by determining the minimum inhibitory concentration (MIC) following standard methods (CLSI: Reference method for broth dilution antifungal susceptibility testing of yeasts; Approved standard, second edition M27-A2, 2002; CLSI: Reference method for broth dilution antifungal susceptibility testing of filamentous fungi; Approved standard M38-A, 2002). Anti-fungal susceptibility testing of these anti-fungal compounds was done by broth dilution method using RPMI 1640 medium with MOPS buffer. Known anti-fungal agent fluconazole was used as positive control. End points were determined after 48 hours visually and by using spectrophotometer wherever necessary. Different dilutions were tried and various sets of experiments performed. The activity parameters are enumerated in Table 4.

[2] = system: C. neoformans ATCC 34664; assay: as above; type: cell-based, Cryptococcus neoformans; conditions: Cryptococcus neoformans, ATCC34664; C. neoformans ATCC 34664; broth dilution, RPMI 1640 with MOPS, 48 hours; read-out: Activity against organisms (MIC50) Cn01
Experimental: as §1

[3] = system: C. glabrata ATCC 90030; assay: as above; type: cell-based, Candida glabrata; conditions: Nakaseomyces glabratus, ATCC90030; C. glabrata ATCC 90030; broth dilution, RPMI 1640 with MOPS, 48 hours; read-out: Activity against organisms (MIC50) Cg01
Experimental: as §1

[4] = system: C. albicans ATCC 24433; assay: as above; type: cell-based; conditions: Candida albicans, ATCC24433; C. albicans ATCC 24433; broth dilution, RPMI 1640 with MOPS, 48 hours; read-out: Activity against organisms (MIC50) Ca01
Experimental: as §1

[5] = system: C. tropicalis ATCC 750; assay: as above; type: cell-based, Candida tropicalis; conditions: Candida tropicalis, ATCC750; C. tropicalis ATCC 750; broth dilution, RPMI 1640 with MOPS, 48 hours; read-out: Activity against organisms (MIC50) Ct01
Experimental: as §1

[6] = system: F. proliferatum ATCC 10052; assay: Antifungal susceptibility, broth dilution MIC (CLSI M38-A); type: cell-based; conditions: Fusarium proliferatum, ATCC10052; F. proliferatum ATCC 10052; broth dilution, RPMI 1640 with MOPS, 48 hours; read-out: Activity against organisms (MIC50) Fp01
Experimental: as §1

[7] = system: A. fumigatus ATCC 46645; assay: as above; type: cell-based; conditions: Aspergillus fumigatus, ATCC46645; A. fumigatus ATCC 46645; broth dilution, RPMI 1640 with MOPS, 48 hours; read-out: Activity against organisms (MIC50) Afm01
Experimental: as §1

[8] = system: A. niger ATCC 16404; assay: as above; type: cell-based; conditions: Aspergillus niger, ATCC16404; A. niger ATCC 16404; broth dilution, RPMI 1640 with MOPS, 48 hours; read-out: Activity against organisms (MIC50) An01
Experimental: as §1

SMILES | MIC50 [1] [µg/mL] | MIC50 [2] [µg/mL] | MIC50 [3] [µg/mL] | MIC50 [4] [µg/mL] | MIC50 [5] [µg/mL] | MIC50 [6] [µg/mL] | MIC50 [7] [µg/mL] | MIC50 [8] [µg/mL]
O=C(/C=C/c1ccc(OCc2cn(CC(O)(Cn3cncn3)c3ccc(F)cc3F)nn2)cc1)c1ccc(OCC(O)(Cn2cncn2)c2ccc(F)cc2F)cc1 (stereo not drawn) [Compound 1B-10, (E)-1-(4-(2-(2,4-Difluorophenyl)-2-hydroxy-3-(m-1,2,4-triazol-1-yl)propoxy)phenyl)-3-(4-((1-(2-(2,4-difluorophenyl)-2-hydroxy-3-(1H-1,2,4-triazol-1-yl)propyl)-1H-1,2,3-triazol-4-yl)methoxy)phenyl)prop-2-en-1-one] | 2 (≈ 2.51 µM) | 1 (≈ 1.26 µM) | 0.5 (≈ 0.628 µM) | 0.25 (≈ 0.314 µM) | 1 (≈ 1.26 µM) | > 2 | > 2 | > 2
CC/C=C/c1ccc(OCc2cn(CC(O)(Cn3cncn3)c3ccc(F)cc3F)nn2)cc1 (stereo not drawn) [Compound 1C-1, (E)-1-(4-((4-(But-1-en-1-yl)phenoxy)methyl)-1H-1,2,3-triazol-1-yl)-2-(2,4-difluorophenyl)-3-(1H-1,2,4-triazol-1-yl)propan-2-ol] | 2 (≈ 4.29 µM) | 0.12 (≈ 0.257 µM) | 0.015 (≈ 0.0322 µM) | 0.03 (≈ 0.0643 µM) | 0.25 (≈ 0.536 µM) | > 16 | 8 (≈ 17.1 µM) | 8 (≈ 17.1 µM)
CCCC/C=C/c1ccc(OCc2cn(CC(O)(Cn3cncn3)c3ccc(F)cc3F)nn2)cc1 (stereo not drawn) [Compound 1C-2, (E)-2-(2,4-Difluorophenyl)-1-(4-((4-(n-hex-1-en-1-yl)phenoxy)methyl)-1H-1,2,3-triazol-1-yl)-3-(1H-1,2,4-triazol-1-yl)propan-2-ol] | 2 (≈ 4.04 µM) | 0.25 (≈ 0.506 µM) | 0.06 (≈ 0.121 µM) | 0.12 (≈ 0.243 µM) | 1 (≈ 2.02 µM) | > 4 | 4 (≈ 8.09 µM) | 4 (≈ 8.09 µM)
CCCCCCCCCC/C=C/c1ccc(OCc2cn(CC(O)(Cn3cncn3)c3ccc(F)cc3F)nn2)cc1 (stereo not drawn) [Compound 1C-3, (E)-2-(2,4-Difluorophenyl)-1-(4-((4-(n-dodec-1-en-1-yl)phenoxy)methyl)-1H-1,2,3-triazol-1-yl)-3-(1H-1,2,4-triazol-1-yl)propan-2-ol] | > 2 | 0.5 (≈ 0.864 µM) | 0.12 (≈ 0.207 µM) | 1 (≈ 1.73 µM) | > 2 | > 2 | > 2 | > 2
C/C=C/c1ccc(OCc2cn(CC(O)(Cn3cncn3)c3ccc(F)cc3F)nn2)cc1 (stereo not drawn) [Compound 1C-4, (E)-2-(2,4-Difluorophenyl)-1-(4-((4-(prop-1-en-1-yl)phenoxy)methyl)-1H-1,2,3-triazol-1-yl)-3-(1H-1,2,4-triazol-1-yl)propan-2-ol] | 8 (≈ 17.7 µM) | 0.5 (≈ 1.11 µM) | 0.06 (≈ 0.133 µM) | 0.03 (≈ 0.0663 µM) | 0.12 (≈ 0.265 µM) | > 32 | 32 (≈ 70.7 µM) | 64 (≈ 141 µM)
OC(Cn1cncn1)(Cn1cc(COc2ccccc2)nn1)c1ccc(F)cc1F (stereo not drawn) [Compound 1D-1, 2-(2,4-Difluorophenyl)-1-(4-phenyloxymethyl-1H-1,2,3-triazol-1-yl)-3-(1H-1,2,4-triazol-1-yl)propan-2-ol] | > 128 | 4 (≈ 9.7 µM) | 0.25 (≈ 0.606 µM) | 0.25 (≈ 0.606 µM) | 2 (≈ 4.85 µM) | > 128 | > 128 | > 128
O=Cc1ccc(OCc2cn(CC(O)(Cn3cncn3)c3ccc(F)cc3F)nn2)cc1 (stereo not drawn) [Compound 1D-2, 4-((1-(2-(2,4-difluorophenyl)-2-hydroxy-3-(1H-1,2,4-triazol-1-yl)propyl)-1H-1,2,3-triazol-4-yl)methoxy)benzaldehyde] | 64 (≈ 145 µM) | 4 (≈ 9.08 µM) | 1 (≈ 2.27 µM) | 0.5 (≈ 1.14 µM) | 2 (≈ 4.54 µM) | > 128 | > 128 | > 128
CC(=O)c1ccc(OCc2cn(CC(O)(Cn3cncn3)c3ccc(F)cc3F)nn2)cc1 (stereo not drawn) [Compound 1D-3, 1-(4-(4-Acetylphenyloxy)methyl-1H-1,2,3-triazol-1-yl)-2-(2,4-difluorophenyl)-3-(1H-1,2,4-triazol-1-yl)propan-2-ol] | 64 (≈ 141 µM) | 4 (≈ 8.8 µM) | 1 (≈ 2.2 µM) | 0.5 (≈ 1.1 µM) | 4 (≈ 8.8 µM) | > 128 | > 128 | > 128
CC(=O)Nc1ccc(OCc2cn(CC(O)(Cn3cncn3)c3ccc(F)cc3F)nn2)cc1 (stereo not drawn) [Compound 1D-4, 1-(4-(4-Acetylaminophenyloxy)methyl-1H-1,2,3-triazol-1-yl)-2-(2,4-difluorophenyl)-3-(1H-1,2,4-triazol-1-yl)propan-2-ol] | > 128 | > 128 | 32 (≈ 68.2 µM) | 32 (≈ 68.2 µM) | > 128 | > 128 | > 128 | > 128
Cc1ccc(OCc2cn(CC(O)(Cn3cncn3)c3ccc(F)cc3F)nn2)cc1 (stereo not drawn) [Compound 1D-5, 2-(2,4-Difluorophenyl)-1-(4-(4-methylphenyloxy)methyl-1H-1,2,3-triazol-1-yl)-3-(1H-1,2,4-triazol-1-yl)propan-2-ol] | 8 (≈ 18.8 µM) | 2 (≈ 4.69 µM) | 0.03 (≈ 0.0704 µM) | 0.12 (≈ 0.281 µM) | 0.5 (≈ 1.17 µM) | > 128 | 64 (≈ 150 µM) | 64 (≈ 150 µM)
Cc1cc(C#N)c(N)c(C#N)c1-c1ccc(OCc2cn(CC(O)(Cn3cncn3)c3ccc(F)cc3F)nn2)cc1 (stereo not drawn) [Compound 1D-6, 3-Amino-4′-((1-(2-(2,4-difluorophenyl)-2-hydroxy-3-(1H-1,2,4-triazol-1-yl)propyl)-1H-1,2,3-triazol-4-yl)methoxy)-6-methylbiphenyl-2,4-dicarbonitrile] | > 8 | 1 (≈ 1.76 µM) | 0.5 (≈ 0.881 µM) | 0.5 (≈ 0.881 µM) | 2 (≈ 3.52 µM) | > 8 | > 8 | > 8
C#CCOc1ccc(/C=C/C(=O)c2ccc(N3CCN(CCC)CC3)cc2)cc1 [Compound 6A-1, (E)-3-(4-(Prop-2-yn-1-yloxy)phenyl)-1-(4-(4-propylpiperazin-1-yl)phenyl)prop-2-en-1-one] | > 4 | > 4 | > 4 | > 4 | > 4 | > 4 | > 4 | > 4
C#CCOc1ccc(/C=C/C(=O)c2ccc(N3CCN(CCCC)CC3)cc2)cc1 [Compound 6A-2] | > 4 | > 4 | > 4 | > 4 | > 4 | > 4 | > 4 | > 4
C#CCOc1ccc(/C=C/C(=O)c2ccc(N3CCN(Cc4ccc(OC)cc4)CC3)cc2)cc1 [Compound 6A-4] | > 8 | > 8 | > 8 | > 8 | > 8 | > 8 | > 8 | > 8
OCc1cn(CC(O)(Cn2cncn2)c2ccc(F)cc2F)nn1 (stereo not drawn) [Compound 8A-1, 2-(2,4-Difluorophenyl)-1-(4-(hydroxymethyl)-1H-1,2,3-triazol-1-yl)-3-(1H-1,2,4-triazol-1-yl)propan-2-ol] | > 128 | > 128 | 2 (≈ 5.95 µM) | 32 (≈ 95.2 µM) | > 128 | > 128 | > 128 | > 128
COc1ccc(/C=C/C(=O)c2ccc(OC)cc2)cc1 [Compound 9A-1] | > 4 | > 4 | > 4 | > 4 | > 4 | > 4 | > 4 | > 4
COc1ccc(/C=C/C(=O)c2ccc(O)cc2)cc1 [Compound 9A-2] | > 32 | > 32 | > 32 | > 32 | > 32 | > 32 | > 32 | > 32
COc1ccc(C(=O)/C=C/c2ccc(Cl)cc2)cc1 [Compound 9A-3] | > 4 | > 4 | > 4 | > 4 | > 4 | > 4 | > 4 | > 4

From patent publication US9540350B2, “1-substituted, 4-(substituted phenoxymethyl)-1,2,3-triazole compounds with antifungal properties and methods for preparation thereof” (FDC LIMITED, priority 2013, dated 2017)
